Assay results as given in patent publication US20170226120A1, “INHIBITORS OF HIF PROLYL HYDROXYLASE” (MERCK SHARP & DOHME CORP., priority 2014, published 2017).
Read-outs that look alike come from different tables or passages of the source.

Experiments:
human HIF-PHD2 = biological target: T1, human HIF-PHD2 (Homo sapiens, UniProt Q9GZT9); experiment: HIF-PHD2 inhibition, time resolved fluorescence assay of HIF-1α peptide hydroxylation; assay type: biochemical; conditions: FLAG-tagged full length PHD2; 0.2 μM 2-oxoglutarate, 0.5 μM HIF-1α peptide
T1 construct: FLAG-tagged full length PHD2 expressed in and purified from baculovirus-infected Sf9 cells; FLAG; made in house; host or cells: baculovirus-infected Sf9 cells
Method: To each well of a 384-well plate, 1 μL of test compounds in DMSO (final concentration ranging from 0.3 nM to 10 uM) were added into 20 μl of assay buffer (50 mM Tris pH 7.4/0.01% Tween-20/0.1 mg/ml bovine serum albumin/10 μM ferrous sulfate/1 mM sodium ascorbate/20 μg/ml catalase) containing 0.15 μg/ml FLAG-tagged full length PHD2 expressed in and purified from baculovirus-infected Sf9 cells. After a 5 min preincubation at room temperature, the enzymatic reactions were initiated by the addition of 4 μL of substrates {final concentrations of 0.2 μM 2-oxoglutarate and 0.5 μM HIF-1α peptide biotinyl-[…] […] After incubation for 45 minutes at room temperature, the reactions were terminated by the addition of a 25 μL quench/detection mix to a final concentration of 1 mM ortho-phenanthroline, 0.1 mM EDTA, 0.5 nM anti-(His)6 LANCE reagent (Perkin-Elmer Life Sciences), 100 nM AF647-labeled streptavidin (Invitrogen), and 2 μg/ml (His)6-VHL complex {S. Tan Protein Expr. Purif.

[1] = Tissue PK profile in rat (liver and plasma drug level); assay type: in vivo; conditions: 10 mg/kg, 4 hours after PO dosing at 10 mpk, vehicle 0.5% MC; for concentration at 4 h: po; for Kp at 4 h: liver/plasma, read-out: liver/plasma ratio
Method: The tissue PK profile of compounds described in this application were evaluated in rat. The tissue was harvested 4 hours after PO dosing at 10 mpk (vehicle: 0.5% MC; dose volume: 5 mL/Kg) and the drug level was determined. Shown in Table 1 are compound concentrations of selected examples in rat liver and plasma, as well as liver to plasma drug ratio.

[2] = liver, read-out: liver concentration
[3] = plasma, read-out: plasma concentration

T1 sequence (Q9GZT9 whole entry): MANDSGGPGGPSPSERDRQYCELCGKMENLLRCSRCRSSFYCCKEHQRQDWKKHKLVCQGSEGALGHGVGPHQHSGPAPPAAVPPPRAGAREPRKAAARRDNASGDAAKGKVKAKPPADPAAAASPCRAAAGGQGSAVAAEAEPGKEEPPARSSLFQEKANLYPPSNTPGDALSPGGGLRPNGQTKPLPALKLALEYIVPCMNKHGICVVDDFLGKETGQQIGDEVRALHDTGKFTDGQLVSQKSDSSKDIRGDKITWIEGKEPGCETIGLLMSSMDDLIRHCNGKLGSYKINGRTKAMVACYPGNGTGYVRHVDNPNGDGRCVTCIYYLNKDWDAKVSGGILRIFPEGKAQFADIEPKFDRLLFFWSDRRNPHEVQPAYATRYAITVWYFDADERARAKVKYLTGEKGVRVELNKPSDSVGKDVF

Structure (SMILES) | IC50 (human HIF-PHD2) [nM] | concentration at 4 h [1, 2] [nM] | Kp at 4 h [1] | concentration at 4 h [1, 3] [nM]
NC(=O)c1ccc(-c2ccc(Cn3c4c(c(O)c(C(=O)NCC(=O)O)c3=O)COC4)cc2)cc1 [Example 61, 2-(1-((4′-carbamoyl-[1,1′-biphenyl]-4-yl)methyl)-4-hydroxy-2-oxo-1,2,5,7-tetrahydrofuro[3,4-b]pyridine-3-carboxamido)acetic acid] | 1.1 | 25.8 | 4.89 | 5.28
Cc1cc(Cl)ccc1Cn1c2c(c(O)c(C(=O)NCC(=O)O)c1=O)COC2 [Example 42, 2-(1-(4-chloro-2-methylbenzyl)-4-hydroxy-2-oxo-1,2,5,7-tetrahydrofuro[3,4-b]pyridine-3-carboxamido)acetic acid] | 4.1 | 54200 | 35.6 | 1520
N#Cc1ccc(-c2ccc(Cn3c4c(c(O)c(C(=O)NCC(=O)O)c3=O)COC4)cc2)cc1 [Example 24, 2-(1-((4′-cyano-[1,1′-biphenyl]-4-yl)methyl)-4-hydroxy-2-oxo-1,2,5,7-tetrahydrofuro[3,4-b]pyridine-3-carboxamido)acetic acid] | 1.5 | 642 | 30.4 | 13.7
N#Cc1ccc(Cn2c3c(c(O)c(C(=O)NCC(=O)O)c2=O)COC3)cc1 [Example 6, 2-(1-(4-Cyanobenzyl)-4-hydroxy-2-oxo-1,2,5,7-tetrahydrofuro[3,4-b]pyridine-3-carboxamido)acetic acid] | 3.1 | 1820 | 17.9 | 123
